How the values were obtained:
C81 xenograft tumors = C81 xenograft tumors in mice, intratumoral injection; assay type: in vivo
Experimental: FIGS. 28A-C: Peptide A-8R [SEQ ID NO: 1] inhibits the growth of C81 prostate xenograft tumors. (A) C81 (hormone-independent LNCaP) xenograft tumors were grown in nude mice to a size of about 200 cubic mm and then treated every other day with five intratumoral injections of either Peptide A-8R [SEQ ID NO: 1] ([…] of animal) or vehicle (DMSO) for seven days, after which the tumors were left untreated and allowed to grow for an additional 3 weeks before the tumors were excised. Each point represents the average tumor size of three animals plus or minus the standard deviations. The arrow represents the last treatment of Peptide A-8R [SEQ ID NO: 1] or vehicle. There is a statistical significance (P<0.0004) of Peptide A activity, relative to vehicle, for each treatment day. […] Bar graphs represent averages of each set of three tumors plus standard deviations. Asterisks indicate statistical significance (P<0.02). (C) Image showing the strong anti-tumor effect of Peptide A-8R [SEQ ID NO: 1], as compared to vehicle control, in one animal.
This experiment was then repeated using hormone-refractory C81 cells. 2×10^6 C81 cells in 50 μL of growth medium was mixed with 50 μL Matrigel (BD Biosciences) and injected into both flanks of 4-6-week old SCID male mice. When tumor sizes reached 200 mm^3, 50 μL of Peptide A-8R (40 mg Peptide A-8R/kg of animal) [“A-8R” disclosed as SEQ ID NO: 1] or vehicle (DMSO) was directly injected into the tumors every other day. Injections were stopped after 5 times and tumors were measured every 3 days. Mice were euthanized after 3 weeks and tumors were excised. All procedures were approved by the University of Toledo, Division of Lab Animal Recourses (DLAR). Protein extracts were prepared by boiling the tumor tissue in 3×SDS buffer, and evaluated by SDS-PAGE gel. The procedure was carried out in strict accordance with the recommendations in the Guide for the Care and Use of Laboratory Animals of the National Institutes of Health. […] During the experiments, all animals were monitored daily for morbidity and all efforts were made to minimize suffering. […]

[1] = tested on: ACHN human kidney cancer cells; experiment: ACHN cell density with peptide; assay type: cell-based; details: even at 100 μM; 2 or 4 days; no endogenous sGCα1
Experimental: FIG. 17C: ACHN human kidney cancer cells were grown for 2 or 4 days in the presence of increasing concentration of Peptide A-8R [SEQ ID NO: 1] or vehicle and then cell density was measured.

[2] = tested on: Capan-2 pancreatic cancer cells; experiment: Capan-2 cell density with peptide; assay type: cell-based; details: increasing concentration; 3 or 5 days
Experimental: FIG. 21B: Capan-2 pancreatic cancer cells were grown for 3 or 5 days in the presence of increasing concentration of Peptide A-8R [SEQ ID NO: 1] or vehicle and then cell density was measured.
To determine if Peptide A-8R [SEQ ID NO: 1] can be cytotoxic to other cancer cells, a pancreatic cancer cell line, Capan-2, was also tested.

Caspase 3/7 = Caspase 3/7 activity in LNCaP cells; assay type: cell-based; details: 10 mM Peptide A-8R
Experimental: FIG. 18A: LNCaP cells were grown for 1-24 hrs in the presence of vehicle, […] Peptide A-8R [SEQ ID NO: 1], or […] Etoposide and then measured for Caspase 3/7 activity.
To determine if the cytotoxicity of Peptide A-8R [SEQ ID NO: 1] is through apoptosis, LNCaP cells were monitored for Caspase 3/7 activity. […] Thus, Peptide A-8R [SEQ ID NO: 1] was able to induce Caspase 3/7 activity much faster than the well-studied apoptosis-inducing drug Etoposide. To confirm that the Peptide was killing cells via apoptosis, the inventors used the pan-caspase inhibitor Z-VAD-FMK.

Ac-TFCKAFPFHIIRRRRRRRR-OH [Peptide A-8R]
tumor growth during treatment (C81 xenograft tumors; 40 mg/kg intratumoral every other day, five injections): stopped tumor growth and actually caused some tumor regression
tumor size versus vehicle-treated tumor in the same mouse (C81 xenograft tumors; one mouse having two tumors): markedly smaller
tumor growth after peptide treatment was stopped (C81 xenograft tumors; three weeks after treatment was stopped): did not grow at all
effect on ACHN cells [1]: little to no effect
cytotoxicity to Capan-2 cells [2]: strongly cytotoxic
increase in caspase activity (Caspase 3/7; after 8 hrs): ~4 fold
caspase activity (Caspase 3/7; after 24 hrs): diminished to Vehicle levels
increase in caspase activity (Caspase 3/7; by 1 hour): 2 fold

— patent publication US9546196B2, “Compositions and methods of treatment of cancers” (The University of Toledo, priority 2009, dated 2017)
